From patent publication US20240417398A1, “TETRAHYDRONAPTHYRIDINE AND RELATED ANALOGS FOR INHIBITING YAP/TAZ-TEAD” (SpringWorks Therapeutics, Inc., priority 2023, published 2024)
pEC50, pIC50: −log10 of the molar value.

What was measured:
Type in all cases: cell-based
[1] = test system: YAP/TAZ-TEAD transcription; experiment: Reporter gene assay for measuring the inhibition of YAP/TAZ-TEAD transcription (TEAD-responsive element luciferase reporter, Hek293T cells); conditions: Hek293T cells transfected with TEAD-responsive element luciferase reporter, 24 hours incubation
Experimental: Hek293T cells were cultured in DMEM supplemented with 10% fetal bovine serum, Sodium pyruvate, Sodium bicarbonate, L-glutamine. The cells were harvested and transiently transfected with TEAD-responsive element luciferase reporter. Transfected cells were plated in 384-well plate containing pre-diluted compounds. After 24 hours incubation at 37° C./5% CO2, assay plates were cooled to room temperature and levelled to an equal volume per well, prior to the addition of 25 uL luciferase substrate SteadyLite (Perkin Elmer)/well. The plate was shaken for 10 min at 600 rpm, centrifuged for 1 min at 500 rpm and measured with an Envision reader (PerkinElmer). The amount of relative light units produced by the TEAD reporter was used to calculate the percentage of inhibition.
The percent of reporter inhibition was calculated in the presence of a positive control inhibitor (100% inhibition) versus a condition with the presence of the vehicle basal activity of the reporter (0% inhibition). The ability of a test compound to inhibit this activity was determined as: Percentage inhibition=[1-((RLU determined in the presence of vehicle−RLU determined for sample with test compound present) divided by (RLU determined in the presence of vehicle−RLU determined for sample with positive control inhibitor))]*100.
The activities of example compounds tested are depicted in Table 3. The activity ranges A, B and C refer to IC50 values in the reporter gene assay as follows: “A”: IC50<1 μM; “B”: 1 μM≤IC50 10 μM and “C”: IC50>10 μM; NT=not tested.

NCI-H226 = experiment: Mesothelioma cell line proliferation assay (ATPlite), NCI-H226; conditions: NCI-H226 cells, 6 days with compound, ATPlite cell viability
Experimental: (§1) Mesothelioma cell lines, NCI-H226 and NCI-H2052 (both sourced from the ATCC cell culture collection) were plated in 96-well plates (Corning® 96 Well White Polystyrene Microplate clear flat bottom, white polystyrene (TC-Treated)), at 1500 cells/well in full medium (RPMI 1640 ATCC modification with L-glutamine, HEPES, Phenol Red, Sodium Pyruvate, High glucose, Low sodium bicarbonate and 10% fetal bovine serum). Cells were incubated overnight at 37° C. in an incubator with 5% CO2. Then compounds, dissolved in DMSO, were added in dose-response. Cells were incubated with compound dilutions for another 6 days at 37° C. in an incubator with 5% CO2. Cell viability was quantitated using the ATPlite kit (Perkin-Elmer) and the luminescence was read-out using an Envision instrument (Perkin-Elmer). The amount of relative light units produced using the ATPlite kit was used to calculate percent of inhibition.
(§2) The activities of some example compounds are depicted in Table 4. The activity ranges A, B and C refer to EC50 values in the mesothelioma cell line proliferation assay as described as follows: “A”: EC50<1 μM; “B”: 1 μM≤EC50<10 μM and “C”: EC50>10 μM; NT: not tested.

NCI-H2052 = experiment: Mesothelioma cell line proliferation assay (ATPlite), NCI-H2052; conditions: NCI-H2052 cells, 6 days with compound, ATPlite cell viability
Experimental: as §1, §2

Row | Compound | pIC50 ([1]; Homo sapiens, HEK-293T, 24 h) | further results
1 | C=CC(=O)NCC1Cc2c(OCc3cc[nH]c(=O)c3)cccc2N(c2ccc(C(F)(F)F)cc2)C1 (single isomer, unassigned) [Cpd. No. 6-En1, (R)- or (S)-N-((5-((2-oxo-1,2-dihydropyridin-4-yl)methoxy)-1-(4-(trifluoromethyl)phenyl)-1,2,3,4-tetrahydroquinolin-3-yl)methyl)acrylamide] | > 6.00 | pEC50 (NCI-H226): > 6.00
2 | C=CC(=O)NCC1Cc2c(OCc3cc[nH]c(=O)c3)cccc2N(c2ccc(C(F)(F)F)cc2)C1 (single isomer, unassigned) [Cpd. No. 6-En2, (R)- or (S)-N-((5-((2-oxo-1,2-dihydropyridin-4-yl)methoxy)-1-(4-(trifluoromethyl)phenyl)-1,2,3,4-tetrahydroquinolin-3-yl)methyl)acrylamide] | – | pIC50 [1]: > 6.00; pEC50 (NCI-H226; Homo sapiens, 144 h): > 6.00; pEC50 (NCI-H2052; Homo sapiens, 144 h): > 6.00
3 | C=CC(=O)NCC1Cc2ncccc2N(c2ccc(C(F)(F)F)cc2)C1 (single isomer, unassigned) [Cpd. No. 10-En1, (R)- or (S)-N-((1-(4-(trifluoromethyl)phenyl)-1,2,3,4-tetrahydro-1,5-naphthyridin-3-yl)methyl)acrylamide] | > 6.00 | pEC50 (NCI-H226; Homo sapiens, 144 h): > 6.00; pEC50 (NCI-H2052; Homo sapiens, 144 h): > 6.00
4 | CC(=O)NCC1Cc2ncccc2N(c2ccc(C(F)(F)F)cc2)C1 (single isomer, unassigned) [Cpd. No. 12-En2, (R)- or (S)-N-((1-(4-(trifluoromethyl)phenyl)-1,2,3,4-tetrahydro-1,5-naphthyridin-3-yl)methyl)acetamide] | – | pIC50 [1]: > 6.00; pEC50 (NCI-H226; Homo sapiens, 144 h): > 6.00; pEC50 (NCI-H2052; Homo sapiens, 144 h): > 6.00
5 | C=CC(=O)NCC1Cc2c(OCc3cc(=O)[nH]c(=O)n3C)cccc2N(c2ccc(C(F)(F)F)cc2)C1 (single isomer, unassigned) [Cpd. No. 14-En1, (R)- or (S)-N-((5-((3-methyl-2,6-dioxo-1,2,3,6-tetrahydropyrimidin-4-yl)methoxy)-1-(4-(trifluoromethyl)phenyl)-1,2,3,4-tetrahydroquinolin-3-yl)methyl)acrylamide] | > 6.00 | pEC50 (NCI-H226; Homo sapiens, 144 h): > 6.00; pEC50 (NCI-H2052; Homo sapiens, 144 h): > 6.00
6 | C=CC(=O)NCC1Cc2c(OCc3cc(=O)[nH]c(=O)n3C)cccc2N(c2ccc(C(F)(F)F)cc2)C1 (single isomer, unassigned) [Cpd. No. 14-En2, (R)- or (S)-N-((5-((3-methyl-2,6-dioxo-1,2,3,6-tetrahydropyrimidin-4-yl)methoxy)-1-(4-(trifluoromethyl)phenyl)-1,2,3,4-tetrahydroquinolin-3-yl)methyl)acrylamide] | – | pEC50 (NCI-H226): > 6.00; pEC50 (NCI-H2052): > 6.00
7 | CC(=O)NCC1Cc2nc(N)ccc2N(c2ccc(C(F)(F)F)cc2)C1 (centres unmarked) [Cpd. No. 45, N-((6-amino-1-(4-(trifluoromethyl)phenyl)-1,2,3,4-tetrahydro-1,5-naphthyridin-3-yl)methyl)acetamide] | > 6.00 | –
8 | CC(=O)NCc1cc2c(c(-c3ccc(C(F)(F)F)cc3)c1)CN(C)CC2 [Cpd. No. 46, N-((2-methyl-8-(4-(trifluoromethyl)phenyl)-1,2,3,4-tetrahydroisoquinolin-6-yl)methyl)acetamide] | < 5.00 | –
9 | CC(=O)NCC1(C)Cc2ncccc2N(c2ccc(C(F)(F)F)cc2)C1 (centres unmarked) [Cpd. No. 47, N-((3-methyl-1-(4-(trifluoromethyl)phenyl)-1,2,3,4-tetrahydro-1,5-naphthyridin-3-yl)methyl)acetamide] | > 6.00 | –
10 | CC(=O)NCC1Cc2c(ccc(=O)n2C)N(c2ccc(C(F)(F)F)cc2)C1 (centres unmarked) [Cpd. No. 48, N-((5-methyl-6-oxo-1-(4-(trifluoromethyl)phenyl)-1,2,3,4,5,6-hexahydro-1,5-naphthyridin-3-yl)methyl)acetamide] | < 5.00 | –
11 | CC(=O)NCC1Cc2ncc(N)cc2N(c2ccc(C(F)(F)F)cc2)C1 (centres unmarked) [Cpd. No. 49, N-((7-amino-1-(4-(trifluoromethyl)phenyl)-1,2,3,4-tetrahydro-1,5-naphthyridin-3-yl)methyl)acetamide] | 5.00 to 6.00 | –
12 | CC(=O)NCC1Cc2ncc(F)cc2N(c2ccc(C(F)(F)F)cc2)C1 (centres unmarked) [Cpd. No. 50, N-((7-fluoro-1-(4-(trifluoromethyl)phenyl)-1,2,3,4-tetrahydro-1,5-naphthyridin-3-yl)methyl)acetamide] | > 6.00 | –
13 | CC(=O)NCC1Cc2ncc(Cl)cc2N(c2ccc(C(F)(F)F)cc2)C1 (centres unmarked) [Cpd. No. 51, N-((7-chloro-1-(4-(trifluoromethyl)phenyl)-1,2,3,4-tetrahydro-1,5-naphthyridin-3-yl)methyl)acetamide] | > 6.00 | –
14 | CC(=O)NCC1Cc2nc(N(C)C)ccc2N(c2ccc(C(F)(F)F)cc2)C1 (centres unmarked) [Cpd. No. 52, N-((6-(dimethylamino)-1-(4-(trifluoromethyl)phenyl)-1,2,3,4-tetrahydro-1,5-naphthyridin-3-yl)methyl)acetamide] | > 6.00 | –
15 | CC(=O)NCC1Cc2ncccc2N(c2ccc(C(F)(F)F)cn2)C1 (centres unmarked) [Cpd. No. 53, N-((1-(5-(trifluoromethyl)pyridin-2-yl)-1,2,3,4-tetrahydro-1,5-naphthyridin-3-yl)methyl)acetamide] | 5.00 to 6.00 | –
16 | CC(=O)NCC1Cc2c(ccn(C)c2=O)N(c2ccc(C(F)(F)F)cc2)C1 (centres unmarked) [Cpd. No. 54, N-((6-methyl-5-oxo-1-(4-(trifluoromethyl)phenyl)-1,2,3,4,5,6-hexahydro-1,6-naphthyridin-3-yl)methyl)acetamide] | > 6.00 | –
17 | CCc1ccc2c(n1)CC(CNC(C)=O)CN2c1ccc(C(F)(F)F)cc1 (centres unmarked) [Cpd. No. 55, N-((6-ethyl-1-(4-(trifluoromethyl)phenyl)-1,2,3,4-tetrahydro-1,5-naphthyridin-3-yl)methyl)acetamide] | > 6.00 | –
18 | CC(=O)NCC1Cc2nccnc2N(c2ccc(C(F)(F)F)cc2)C1 (centres unmarked) [Cpd. No. 56, N-((5-(4-(trifluoromethyl)phenyl)-5,6,7,8-tetrahydropyrido[2,3-b]pyrazin-7-yl)methyl)acetamide] | > 6.00 | –
19 | CC(=O)NCC1Cc2nc(C3CC3)ccc2N(c2ccc(C(F)(F)F)cc2)C1 (centres unmarked) [Cpd. No. 57, N-((6-cyclopropyl-1-(4-(trifluoromethyl)phenyl)-1,2,3,4-tetrahydro-1,5-naphthyridin-3-yl)methyl)acetamide] | > 6.00 | –
20 | CC(=O)NCC1Cc2nc(C#N)ccc2N(c2ccc(C(F)(F)F)cc2)C1 (centres unmarked) [Cpd. No. 58, N-((6-cyano-1-(4-(trifluoromethyl)phenyl)-1,2,3,4-tetrahydro-1,5-naphthyridin-3-yl)methyl)acetamide] | < 5.00 | –
21 | CC(=O)NCC1Cc2nc(C(N)=O)ccc2N(c2ccc(C(F)(F)F)cc2)C1 (centres unmarked) [Cpd. No. 59, 7-(acetamidomethyl)-5-(4-(trifluoromethyl)phenyl)-5,6,7,8-tetrahydro-1,5-naphthyridine-2-carboxamide] | < 5.00 | –
22 | CC(=O)NCC1Cc2nc(OC(F)F)ccc2N(c2ccc(C(F)(F)F)cc2)C1 (centres unmarked) [Cpd. No. 60, N-((6-(difluoromethoxy)-1-(4-(trifluoromethyl)phenyl)-1,2,3,4-tetrahydro-1,5-naphthyridin-3-yl)methyl)acetamide] | > 6.00 | –
23 | CC(=O)NCC1Cc2nc(C(F)F)ccc2N(c2ccc(C(F)(F)F)cc2)C1 (centres unmarked) [Cpd. No. 61, N-((6-(difluoromethyl)-1-(4-(trifluoromethyl)phenyl)-1,2,3,4-tetrahydro-1,5-naphthyridin-3-yl)methyl)acetamide] | 5.00 to 6.00 | –
24 | CC(=O)NCC1Cc2nc(Br)ccc2N(c2ccc(C(F)(F)F)cc2)C1 (centres unmarked) [Cpd. No. 62, N-((6-bromo-1-(4-(trifluoromethyl)phenyl)-1,2,3,4-tetrahydro-1,5-naphthyridin-3-yl)methyl)acetamide] | > 6.00 | –
25 | C#Cc1ccc2c(n1)CC(CNC(C)=O)CN2c1ccc(C(F)(F)F)cc1 (centres unmarked) [Cpd. No. 63, N-((6-ethynyl-1-(4-(trifluoromethyl)phenyl)-1,2,3,4-tetrahydro-1,5-naphthyridin-3-yl)methyl)acetamide] | > 6.00 | –
